Assays:
AAK1 = biological target: T1, AAK1 (Homo sapiens, UniProt Q2M2I8); assay: Kinobeads two-dose competition binding: AAK1; settings: for CATDS: sheet CATDS matrix 2, Gene Name AAK1; for potency estimated from few doses: sheet "Kinobeads Drugmatrix - all", unit inferred, same values below 1000 recur in sheet "nanomolar", read-out: Kinobeads Drugmatrix - all: apparent Kd, AAK1;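 on all read-outs here: kinobeads competition pulldown from cell lysate, compound preincubated 45 min at 4 °C, bead-bound protein measured by label-free mass spectrometry against DMSO vehicle control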
T1 construct: to maximize the representation of endogenous proteins; endogenous in cells
T1 sequence (Q2M2I8 whole entry): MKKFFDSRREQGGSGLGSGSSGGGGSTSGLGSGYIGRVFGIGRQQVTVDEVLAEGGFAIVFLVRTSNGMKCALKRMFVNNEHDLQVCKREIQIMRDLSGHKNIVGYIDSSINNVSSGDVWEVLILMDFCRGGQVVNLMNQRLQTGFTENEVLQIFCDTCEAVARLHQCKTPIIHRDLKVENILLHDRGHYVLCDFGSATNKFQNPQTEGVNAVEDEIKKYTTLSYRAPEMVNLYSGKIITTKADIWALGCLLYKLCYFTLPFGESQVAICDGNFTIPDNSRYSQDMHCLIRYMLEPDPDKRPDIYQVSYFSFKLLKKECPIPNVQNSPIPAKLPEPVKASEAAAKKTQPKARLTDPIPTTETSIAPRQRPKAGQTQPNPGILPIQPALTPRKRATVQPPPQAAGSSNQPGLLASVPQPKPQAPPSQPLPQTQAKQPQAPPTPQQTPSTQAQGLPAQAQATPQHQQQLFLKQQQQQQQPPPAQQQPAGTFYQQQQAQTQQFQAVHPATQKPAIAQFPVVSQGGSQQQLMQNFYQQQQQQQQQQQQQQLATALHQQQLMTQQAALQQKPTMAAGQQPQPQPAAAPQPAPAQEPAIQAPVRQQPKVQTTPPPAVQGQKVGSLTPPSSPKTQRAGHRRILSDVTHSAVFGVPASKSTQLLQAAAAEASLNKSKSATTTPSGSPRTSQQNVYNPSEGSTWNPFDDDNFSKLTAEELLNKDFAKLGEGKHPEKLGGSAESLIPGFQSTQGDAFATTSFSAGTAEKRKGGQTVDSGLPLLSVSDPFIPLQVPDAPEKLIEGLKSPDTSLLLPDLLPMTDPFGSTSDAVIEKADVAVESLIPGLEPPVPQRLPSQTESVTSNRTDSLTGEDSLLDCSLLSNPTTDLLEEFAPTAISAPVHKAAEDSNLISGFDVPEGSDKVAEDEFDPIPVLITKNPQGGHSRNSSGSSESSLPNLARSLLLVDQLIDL

ABL1 = ABL1 (Homo sapiens, UniProt P00519); assay: Kinobeads two-dose competition binding: ABL1; settings: sheet CATDS matrix 2; Gene Name ABL1
ABL1, sequence (P00519 28-1130 limits assumed): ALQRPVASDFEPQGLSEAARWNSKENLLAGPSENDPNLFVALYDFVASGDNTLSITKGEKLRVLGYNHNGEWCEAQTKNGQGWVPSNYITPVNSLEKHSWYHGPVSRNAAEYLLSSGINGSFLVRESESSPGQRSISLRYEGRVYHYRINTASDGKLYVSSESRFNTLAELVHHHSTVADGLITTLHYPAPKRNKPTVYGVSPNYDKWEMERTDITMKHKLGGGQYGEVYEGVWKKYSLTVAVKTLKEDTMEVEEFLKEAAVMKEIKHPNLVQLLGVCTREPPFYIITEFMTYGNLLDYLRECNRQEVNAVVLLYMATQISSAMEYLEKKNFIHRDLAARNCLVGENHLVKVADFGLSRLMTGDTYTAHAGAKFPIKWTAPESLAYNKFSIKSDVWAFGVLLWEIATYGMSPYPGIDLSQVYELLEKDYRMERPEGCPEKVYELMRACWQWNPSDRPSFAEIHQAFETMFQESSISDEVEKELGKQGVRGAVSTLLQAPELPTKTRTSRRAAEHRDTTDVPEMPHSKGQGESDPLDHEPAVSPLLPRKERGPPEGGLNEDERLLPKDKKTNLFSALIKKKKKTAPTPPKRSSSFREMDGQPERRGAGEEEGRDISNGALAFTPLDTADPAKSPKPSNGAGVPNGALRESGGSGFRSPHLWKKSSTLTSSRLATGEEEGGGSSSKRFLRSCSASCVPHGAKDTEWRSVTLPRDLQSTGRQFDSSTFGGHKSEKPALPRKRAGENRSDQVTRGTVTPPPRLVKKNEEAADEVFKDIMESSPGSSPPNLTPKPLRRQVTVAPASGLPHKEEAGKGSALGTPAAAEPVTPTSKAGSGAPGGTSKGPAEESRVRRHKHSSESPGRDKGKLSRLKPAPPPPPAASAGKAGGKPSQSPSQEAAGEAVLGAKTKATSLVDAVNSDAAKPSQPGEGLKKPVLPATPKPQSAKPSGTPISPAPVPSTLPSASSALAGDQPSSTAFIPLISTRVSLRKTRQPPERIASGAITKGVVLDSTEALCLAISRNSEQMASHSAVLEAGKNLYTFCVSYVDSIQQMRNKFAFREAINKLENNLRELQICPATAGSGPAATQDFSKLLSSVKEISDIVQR

ACOX1 = biological target: T2, ACOX1 (Homo sapiens, UniProt Q15067); assay: Kinobeads two-dose competition binding: ACOX1; settings: sheet CATDS matrix 2; Gene Name ACOX1;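 further: competition of compounds with immobilized broad-spectrum kinase inhibitor beads in cell lysate at 100 and 1,000 nM, 45 min at 4 °C, bead-bound protein quantified by label-free MS versus DMSO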
T2 construct: endogenous in cells
T2 sequence (Q15067 1-660): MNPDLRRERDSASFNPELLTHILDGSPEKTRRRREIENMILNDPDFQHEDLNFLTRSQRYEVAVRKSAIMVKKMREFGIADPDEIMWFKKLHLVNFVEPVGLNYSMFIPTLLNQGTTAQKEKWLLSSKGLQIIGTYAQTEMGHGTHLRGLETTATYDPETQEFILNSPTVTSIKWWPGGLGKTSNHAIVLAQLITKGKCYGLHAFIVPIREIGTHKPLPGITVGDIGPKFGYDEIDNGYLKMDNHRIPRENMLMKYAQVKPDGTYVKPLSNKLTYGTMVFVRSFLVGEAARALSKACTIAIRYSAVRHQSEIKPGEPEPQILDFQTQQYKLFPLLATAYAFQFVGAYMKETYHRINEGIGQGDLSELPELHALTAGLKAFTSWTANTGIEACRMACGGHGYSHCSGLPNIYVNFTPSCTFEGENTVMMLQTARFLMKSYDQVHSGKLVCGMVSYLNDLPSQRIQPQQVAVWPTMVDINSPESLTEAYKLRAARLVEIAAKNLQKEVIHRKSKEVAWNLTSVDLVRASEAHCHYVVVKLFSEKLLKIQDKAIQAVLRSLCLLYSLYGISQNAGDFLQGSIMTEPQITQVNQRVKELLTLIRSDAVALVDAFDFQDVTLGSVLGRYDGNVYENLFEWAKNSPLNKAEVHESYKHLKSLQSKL

ACAD11 = biological target: T3, ACAD11 (Homo sapiens, UniProt Q709F0); assay: Kinobeads two-dose competition binding: ACAD11; settings: sheet CATDS matrix 2; Gene Name ACAD11
T3 construct: endogenous in cells
T3 sequence (Q709F0 1-780): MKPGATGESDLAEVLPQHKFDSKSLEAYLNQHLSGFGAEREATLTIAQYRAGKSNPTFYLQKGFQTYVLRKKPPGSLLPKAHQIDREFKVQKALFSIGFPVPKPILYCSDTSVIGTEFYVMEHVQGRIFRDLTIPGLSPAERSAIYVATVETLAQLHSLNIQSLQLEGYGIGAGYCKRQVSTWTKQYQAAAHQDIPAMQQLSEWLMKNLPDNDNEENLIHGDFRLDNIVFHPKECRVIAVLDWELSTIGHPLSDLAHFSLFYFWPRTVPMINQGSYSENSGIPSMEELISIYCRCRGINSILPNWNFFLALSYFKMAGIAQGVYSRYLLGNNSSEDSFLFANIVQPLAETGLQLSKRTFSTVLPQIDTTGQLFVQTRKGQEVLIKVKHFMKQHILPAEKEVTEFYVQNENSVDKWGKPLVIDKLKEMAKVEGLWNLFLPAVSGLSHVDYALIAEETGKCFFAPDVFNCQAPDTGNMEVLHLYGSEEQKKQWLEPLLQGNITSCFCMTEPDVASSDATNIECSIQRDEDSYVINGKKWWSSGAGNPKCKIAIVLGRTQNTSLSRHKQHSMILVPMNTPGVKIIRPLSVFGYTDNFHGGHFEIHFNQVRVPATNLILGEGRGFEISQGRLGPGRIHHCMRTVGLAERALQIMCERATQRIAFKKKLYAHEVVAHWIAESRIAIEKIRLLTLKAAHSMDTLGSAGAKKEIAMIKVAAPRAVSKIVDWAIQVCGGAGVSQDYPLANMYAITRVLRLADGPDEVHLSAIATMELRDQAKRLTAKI

ABL2 = biological target: T4, ABL2 (Homo sapiens, UniProt P42684); assay: Kinobeads two-dose competition binding: ABL2; settings: sheet CATDS matrix 2; Gene Name ABL2
T4 construct: endogenous in cells
T4 sequence (P42684 whole entry): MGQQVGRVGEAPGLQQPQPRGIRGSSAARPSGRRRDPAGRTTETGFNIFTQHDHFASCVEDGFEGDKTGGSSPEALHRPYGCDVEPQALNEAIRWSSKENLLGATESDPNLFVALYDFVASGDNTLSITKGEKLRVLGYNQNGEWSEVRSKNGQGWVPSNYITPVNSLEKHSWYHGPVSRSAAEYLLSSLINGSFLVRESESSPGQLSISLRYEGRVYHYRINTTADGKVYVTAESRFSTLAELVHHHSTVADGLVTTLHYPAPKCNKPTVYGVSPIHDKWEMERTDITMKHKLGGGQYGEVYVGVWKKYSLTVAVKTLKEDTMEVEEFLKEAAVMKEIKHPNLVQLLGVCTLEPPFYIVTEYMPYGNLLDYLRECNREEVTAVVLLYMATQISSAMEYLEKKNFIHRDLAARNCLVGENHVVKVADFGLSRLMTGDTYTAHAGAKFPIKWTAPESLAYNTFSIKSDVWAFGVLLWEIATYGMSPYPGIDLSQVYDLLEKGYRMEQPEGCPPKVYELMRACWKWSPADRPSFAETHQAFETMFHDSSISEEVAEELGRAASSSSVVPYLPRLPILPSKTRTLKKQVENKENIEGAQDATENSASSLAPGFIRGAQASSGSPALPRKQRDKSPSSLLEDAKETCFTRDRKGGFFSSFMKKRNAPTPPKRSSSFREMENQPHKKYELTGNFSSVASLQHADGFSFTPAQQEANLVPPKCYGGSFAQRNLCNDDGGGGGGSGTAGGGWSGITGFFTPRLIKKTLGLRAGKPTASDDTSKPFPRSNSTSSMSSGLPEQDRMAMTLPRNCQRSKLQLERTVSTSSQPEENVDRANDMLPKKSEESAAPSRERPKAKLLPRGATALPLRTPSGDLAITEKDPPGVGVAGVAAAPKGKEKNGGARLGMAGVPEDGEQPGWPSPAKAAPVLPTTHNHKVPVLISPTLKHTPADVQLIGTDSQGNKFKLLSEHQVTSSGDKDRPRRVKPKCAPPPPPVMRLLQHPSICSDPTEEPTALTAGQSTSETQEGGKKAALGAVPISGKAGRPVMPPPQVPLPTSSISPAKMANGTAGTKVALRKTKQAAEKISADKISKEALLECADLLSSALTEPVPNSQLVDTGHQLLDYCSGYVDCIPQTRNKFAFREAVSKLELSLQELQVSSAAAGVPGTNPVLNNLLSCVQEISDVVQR

| Structure (SMILES) | CATDS (AAK1) | CATDS (ABL1) | CATDS (ACOX1) | CATDS (ACAD11) | CATDS (ABL2) | potency estimated from few doses (AAK1) |
| --- | --- | --- | --- | --- | --- | --- |
| COC(=O)C(NC(=O)NC1CCN(c2ccnc(Nc3ccc(F)cc3)n2)C1)c1ccccc1 (stereo not drawn) [GSK1379712_KCGS] | 0 | 0 | 0 | 0 | 0 |  |
| COc1cc2ncn(-c3cc(OCC4CCCCC4)c(C(N)=O)s3)c2cc1OC [GSK204559A] | 0 | 0 | 0 | 0 | 0 |  |
| CNC(=O)c1ncccc1Nc1nc(Nc2cc3c(cc2OC)CCCN3C(=O)CN(C)C)nc2[nH]ccc12 [GSK2220400A] | 0 | 0 | 0 | 0 | 0 |  |
| COc1cc2ncnc(Nc3ccc(F)c(Cl)c3)c2cc1O[C@H]1CC[C@H](N)CC1 [BIBW3133BS] | 0 | 0 | 0 | 0 | 0 |  |
| CN(C)C(=O)O[C@H]1CN[C@H](C#Cc2cc3ncnc(Nc4ccc(OCc5cccc(F)c5)c(Cl)c4)c3s2)C1 [GSK182497A] | 0 | 0 | 0 | 0 | 0 |  |
| Cc1cccc(Nc2nc(NCCN)ncc2C(N)=O)c1 [GSK1292139B] | 0.21 | 0 | 0 | 0 | 0 | 164 nM |
| Nc1nc(Nc2ccccc2)cc(-c2ccc3c(N)n[nH]c3c2)n1 [GSK2225749A] | 0.2514 | 0 | 0 | 0 | 0 |  |
| CC(C)(C)OC(=O)NC1CCCN(c2cc(-c3ccc4c(N)n[nH]c4c3)nc(N)n2)C1 (stereo not drawn) [GSK2286096A] | 0 | 0 | 0 | 0 | 0 |  |
| O=C(Nc1cccc(-c2nn3ncccc3c2-c2ccnc(Nc3ccccc3)n2)c1)c1c(F)cccc1F [GSK198271A] | 0 | 0 | 0 | 0 | 0 |  |
| CN(C)S(=O)(=O)c1cc(-c2ccc3nccc(-c4cccc(S(N)(=O)=O)c4)c3c2)cnc1N [GSK1669921A] | 0 | 0 | 0 | 0 | 0 |  |
| COc1c(OCCCN2CCOCC2)ccc2c1N=C(NC(=O)c1cnc(N)nc1)N1CCN=C21 [Copanlisib, reference compound] | 0 | 0 | 0 | 0 | 0 |  |
| CCCN1CCCC(c2ccc(Nc3nc(Nc4cc(F)ccc4C(N)=O)c4cc[nH]c4n3)c(OC)c2)C1 (stereo not drawn) [GSK1173862A] | 0 | 0 | 0 | 0 | 0 |  |

More lines, main results first:

| CATDS (AAK1) | CATDS (ABL1) | CATDS (ACOX1) | CATDS (ACAD11) | CATDS (ABL2) | Structure (SMILES) | potency estimated from few doses (AAK1) |
| --- | --- | --- | --- | --- | --- | --- |
| 0 | 0 | 0 | 0 | 0 | CCCc1cc(N2CCCN(C)CC2)nc2sc3c(N)ncnc3c12 [BI00604564] | > 1000 nM |
| 0 | 0 | 0 | 0 | 0 | CC(C)N1CCN(Cc2cnc(-c3cc(-c4cccc5[nH]ccc45)cc4[nH]ncc34)o2)CC1 [GSK2269557] |  |
| 0 | 0 | 0 | 0 | 0 | NCC1CNC(=O)c2cc3ccc(C(=O)Nc4cccnc4)cc3n2C1 (stereo not drawn) [BI00614644] |  |
| 0 | 0 | 0 | 0 | 0 | CNC(=O)c1c(F)cccc1Nc1nc(Nc2cc3c(cc2OC)CCN3C(=O)CN(C)C)nc2[nH]ccc12 [GSK1838705] |  |
| 0 | 0 | 0 | 0 | 0 | CC(C)C(=O)N[C@@H]1CCN(C(=O)Nc2nc3c(s2)-c2nc(-c4ccccc4Cl)ncc2CC3)C1 [BI00047804] |  |
